Reference: US20240132522A1, “HETEROCYCLIC COMPOUNDS AND METHODS OF USE THEREOF” (1cBio, Inc., priority 2022, published 2024)
Where a name gives a salt, the structure may show the parent alone.

Tests used:
[1] = test system: DLD-1 BRCA2(−/−) colorectal adenocarcinoma cells; test: Cell viability assay (Cell Titer-Glo), DLD-1 BRCA2(−/−); type: cell-based; settings: Homo sapiens, DLD-1, 168 h, 7 days, 200 cells/well
Description: (§1) In some embodiments, the biological assay measures the effects that compounds of the present disclosure may have on the viability of cells, e.g., the viability of cancer cells. In some embodiments, DLD-1 wild-type and DLD-1 BRCA2(−/−) colorectal adenocarcinoma cells, an isogenic pair of cell lines differing in the presence and absence, respectively, of both BRCA2 alleles, are used to measure the effect of the disclosed compounds on the viability of cancer cells.
(§2) In some embodiments, the cells are harvested during the logarithmic growth period, counted, and seeded at a specified count in the wells of a 96- or 384-well cell culture plate. In some embodiments, after seeding, the cells are incubated, e.g., at 37° C., 5% CO2 overnight. In some embodiments, the cells are treated with compounds, e.g., with serially diluted test compounds at 8-11 concentrations within a desired concentration range, e.g., from 1 nM-10 μM, for the generation of dose-response curves. In some embodiments, the plate is further incubated, e.g., for another 3-7 days in a humidified incubator at 37° C. and 5% CO2. In some embodiments, cell viability is assessed by luminescence measurement after addition of Cell Titer-Glo reagent (Promega, Madison, Wis.) according to the manufacturer's instructions. In some embodiments, cell viability IC50 values are calculated using XLFit, equation 201: y=A+((B−A)/(1+((x/C)^D))), where A=bottom, B=top, C=IC50, and D=slope. In some embodiments, the effects of the test compounds on the viability of other cell lines such as MDA-MB-436, MDA-MB-231, SUM149PT, HCC1395, and UWB1.289 are determined in an analogous method.
(§3) Compounds of the present disclosure were tested for their effects on the viability of cancer cells. DLD-1 wild-type and DLD-1 BRCA2(−/−) colorectal adenocarcinoma cells, an isogenic pair of cell lines differing in the presence and absence, respectively, of both BRCA2 alleles, were used. The cells were harvested during the logarithmic growth period, counted, and seeded at 50 cells/well for DLD-1 wild-type and 200 cells/well for DLD-1 BRCA2(−/−) in a 384-well cell culture plate. After seeding, cells were incubated at 37° C., 5% CO2 overnight. Cells were treated with serially diluted test compounds at 10 concentrations from 1.5 nM-30 μM) for generation of dose response curves. The plate was further incubated for another 7 days in a humidified incubator at 37° C. and 5% CO2. Cell viability was assessed by luminescence measurement after addition of Cell Titer-Glo reagent (Promega, Madison, Wis.) according to the manufacturer's instructions. Cell viability IC50 values were calculated using XLFit, equation 201: y=A+((B−A)/(1+((x/C)^D))), where A=bottom, B=top, C=IC50, and D=slope. IC50 values are shown in Table B and are presented in ranges, in which “+++”<300 nM, 300 nM≤“++”<3000 nM, and “+”≥3000 nM. Effects of the test compounds on the viability of other cell lines such as MDA-MB-436, MDA-MB-231, SUM149PT, HCC1395, and UWB1.289 are determined in an analogous method.

[2] = test system: DLD-1 wild-type colorectal adenocarcinoma cells; test: Cell viability assay (Cell Titer-Glo), DLD-1 wild-type; type: cell-based; settings: Homo sapiens, DLD-1, 168 h, 7 days, 50 cells/well
Description: as §1, §2, §3

[3] = target: recombinant human PARP1 (Homo sapiens, UniProt P09874); test: PARP1 fluorescence polarization binding assay; settings: binding IC50, GST-tagged PARP1 20 nM, PARPi-FL probe 3 nM, 4 h at RT
Protocol: In some embodiments, the biological assay is described in the Examples herein. In some embodiments, the biological assay measures PARP-1 binding by way of fluorescence polarization measurements. In some embodiments, binding of a test compound to recombinant human PARP-1 reduces the amount of binding of a fluorescent probe, and consequently reduces the detected level of fluorescence polarization. In some test compound stock solutions are prepared in a solvent, e.g., DMSO, and are serially diluted into a range of concentrations, e.g., 15 concentrations, 14 concentrations, 13 concentrations, 12 concentrations, 11 concentrations, 10 concentrations, 9 concentrations, 8 concentrations, 7 concentrations, 6 concentrations, or 5 concentrations, by a dilution factor, e.g., a 10-fold dilution factor, a 9-fold dilution factor, an 8-fold dilution factor, a 7-fold dilution factor, a 6-fold dilution factor, a 5-fold dilution factor, a 4-fold dilution factor, a 3-fold dilution factor, or a 2-fold dilution factor. In some embodiments, the serial dilutions, e.g., 100 nL of serial dilution, 90 nL of serial dilution, 80 nL of serial dilution, 70 nL of serial dilution, 60 nL of serial dilution, 50 nL of serial dilution, 30 nL of serial dilution, 20 nL of serial dilution, or 10 nL of serial dilution, are added to a multi-welled plate, e.g., a 1536-well plate, a 384-well plate, or a 96-well plate. In some embodiments, PARP-1, e.g., GST-tagged PARP-1, is diluted in assay buffer, e.g., 50 μL of assay buffer, 40 μL of assay buffer, e.g., 30 μL of assay buffer, 20 μL of assay buffer, 10 μL of assay buffer, or 5 μL of assay buffer, and is added to the plate. In some embodiments, the plate is centrifuged, e.g., at 1000 rpm for 1 min, and incubated, e.g., incubated for 30 minutes at room temperature (RT). In some embodiments, a fluorescent probe, e.g., 10 μL of 6 nM PARPi-FL (TOCRIS, Cat #6461), is diluted in an assay buffer and is added to the plate. In some embodiments, the final concentrations of PARP-1 and fluorescent probe are 20 nM and 3 nM, respectively, in a total volume of 20 μL. In some embodiments, the plate is centrifuged, e.g., at 1000 rpm for 1 minute, and the assay plate is incubated, e.g., for 4 h at RT. In some embodiments, the samples in each well are read using a plate reader, e.g., an Envision instrument using excitation=480 nm, and emission wavelength=FITC FP-P pol 535 nm & FITC FP-S pol 535 nm). In some embodiments, percent inhibition is calculated from mP values using Inhibition (%)=[1−(mPc−mPL)/(mPH−mPL)]×100%, where mPc, mPL, and mPH are the mP values of test compound, Low controls, and High controls, respectively. In some embodiments, binding IC50 values are calculated using XLFit (equation 201: y=A+((B−A)/(1+((x/C)^D))), where A=bottom, B=top, C=IC50, and D=slope) with a floating top and bottom for curves.
Compounds of the present disclosure were tested in a PARP1 fluorescence polarization binding assay at Pharmaron (Beijing, P.R. China). In this biochemical assay, binding of test compound to recombinant human PARP1 reduces the amount of binding of a fluorescent probe, and consequently reduces the detected level of fluorescence polarization. Test compound stock solutions were prepared in DMSO and then serially diluted into 10 concentrations by 3-fold dilution in a 384-well plate using a TECAN EVO200. 60 nL of each dilution was transferred to the plate using an Echo550 (Labcyte), and then 10 μL 40 nM GST-tagged PARP1 (BPS Bioscience, Cat #80501), diluted in assay buffer (50 mM Tris pH 8.0, 0.001% Triton X-100, 10 mM MgCl2, 150 mM NaCl), was added to the plate. After a centrifugation at 1000 rpm for 1 min, the assay plate was incubated for 30 min at RT. 10 μL 6 nM PARPi-FL (TOCRIS, Cat #6461), diluted using assay buffer, was then added to the plate. The final concentrations of PARP1 and PARPi-FL were 20 nM and 3 nM, respectively, in a total volume of 20 μL. […]

recombinant human PARP1, sequence (P09874 whole entry): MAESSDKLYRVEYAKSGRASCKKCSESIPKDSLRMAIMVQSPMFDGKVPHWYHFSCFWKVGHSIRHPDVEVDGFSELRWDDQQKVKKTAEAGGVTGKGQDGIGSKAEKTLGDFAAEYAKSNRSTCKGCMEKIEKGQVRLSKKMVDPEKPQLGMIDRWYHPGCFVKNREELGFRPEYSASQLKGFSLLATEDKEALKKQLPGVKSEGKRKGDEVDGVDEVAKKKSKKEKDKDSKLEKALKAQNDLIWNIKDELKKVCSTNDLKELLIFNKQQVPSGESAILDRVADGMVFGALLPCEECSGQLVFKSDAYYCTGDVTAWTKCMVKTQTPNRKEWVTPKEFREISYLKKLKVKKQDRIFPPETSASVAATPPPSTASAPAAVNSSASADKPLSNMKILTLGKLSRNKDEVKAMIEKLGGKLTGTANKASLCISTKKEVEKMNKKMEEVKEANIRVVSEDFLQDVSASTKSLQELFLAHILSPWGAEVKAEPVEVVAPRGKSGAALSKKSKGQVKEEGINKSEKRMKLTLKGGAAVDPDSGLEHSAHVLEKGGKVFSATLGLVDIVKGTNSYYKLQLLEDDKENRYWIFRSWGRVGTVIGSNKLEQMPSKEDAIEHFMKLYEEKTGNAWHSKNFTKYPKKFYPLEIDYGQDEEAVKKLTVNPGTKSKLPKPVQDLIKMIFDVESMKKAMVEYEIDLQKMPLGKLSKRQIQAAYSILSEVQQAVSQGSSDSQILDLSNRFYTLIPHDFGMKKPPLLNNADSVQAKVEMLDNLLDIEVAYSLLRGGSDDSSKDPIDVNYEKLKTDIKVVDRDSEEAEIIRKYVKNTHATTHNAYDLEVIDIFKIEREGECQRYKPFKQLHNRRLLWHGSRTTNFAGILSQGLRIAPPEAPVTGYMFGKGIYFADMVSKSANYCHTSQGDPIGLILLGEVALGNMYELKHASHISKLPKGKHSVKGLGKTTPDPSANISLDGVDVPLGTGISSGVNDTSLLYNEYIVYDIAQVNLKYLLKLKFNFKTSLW

Compound | IC50 [1] | IC50 [2] | IC50 [3]
CCc1cc2ncc(CN3CC4CCC(C3)N4c3ccc(C(=O)NC)nc3)cc2[nH]c1=O [Compound No. 8, 5-(3-((7-ethyl-6-oxo-5,6-dihydro-1,5-naphthyridin-3-yl)methyl)-3,8-diazabicyclo[3.2.1]octan-8-yl)-N-methylpicolinamide] | ≥ 3000 nM | ≥ 3000 nM | 100 to 3000 nM
CCc1cc2ncc(CN3C4CCC3CN(c3ccc(C(=O)NC)nc3)C4)cc2[nH]c1=O [Compound No. 3, 5-(8-((7-ethyl-6-oxo-5,6-dihydro-1,5-naphthyridin-3-yl)methyl)-3,8-diazabicyclo[3.2.1]octan-3-yl)-N-methylpicolinamide] | 300 to 3000 nM | ≥ 3000 nM | < 100 nM
CCc1cc2ncc(CN3CC4(C3)CN(c3ccc(C(=O)NC)nc3C)C4)cc2[nH]c1=O [Compound No. 139, 5-(6-((7-ethyl-6-oxo-5,6-dihydro-1,5-naphthyridin-3-yl)methyl)-2,6-diazaspiro[3.3]heptan-2-yl)-N,6-dimethylpicolinamide formate] | ≥ 3000 nM | ≥ 3000 nM | 100 to 3000 nM
CCc1cc2ncc(CN3CC4(C3)CN(C(=O)c3ccc(F)cc3F)C4)cc2[nH]c1=O [Compound No. 181, 7-({6-[(2,4-difluorophenyl)carbonyl]-2,6-diazaspiro[3.3]heptan-2-yl}methyl)-3-ethyl-1H-1,5-naphthyridin-2-one formate] | ≥ 3000 nM | ≥ 3000 nM | ≥ 3000 nM
